Results as given in article PMC10216478, “Development of a Non-Peptide Angiotensin II Type 1 Receptor Ligand by Structural Modification of Olmesartan as a Biased Agonist” (Biomedicines, 2023).
Where a chain is given by its changes, count along the chain named.

What was measured:
AT1 Q257A receptor = biological target: T1, AT1 Q257A receptor (Rattus norvegicus, UniProt P25095, Q257A); assay: Competition binding study, 125I-[Sar1,Ile8]Ang II, AT1 Q257A receptor; settings: competition with 125I-[Sar1,Ile8]Ang II, n = 3, mean ± standard error, read-out: Binding affinity (Kd)
T1 construct: expressed in transfected cells; host or cells: COS7
T1 sequence (P25095 1-359 Q257A): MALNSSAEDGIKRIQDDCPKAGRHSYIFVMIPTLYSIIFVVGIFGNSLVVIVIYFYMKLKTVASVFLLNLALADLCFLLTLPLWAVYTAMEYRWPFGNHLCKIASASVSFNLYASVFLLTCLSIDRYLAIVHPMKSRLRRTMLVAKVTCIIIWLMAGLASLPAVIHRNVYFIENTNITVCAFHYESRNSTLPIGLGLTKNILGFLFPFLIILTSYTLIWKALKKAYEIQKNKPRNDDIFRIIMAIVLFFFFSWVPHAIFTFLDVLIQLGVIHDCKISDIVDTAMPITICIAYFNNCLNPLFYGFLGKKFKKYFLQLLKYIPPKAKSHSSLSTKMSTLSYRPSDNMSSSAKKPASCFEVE
Excerpt: (§1) We mutated four amino acids in transmembrane (TM) III, VI, and VII in the AT1 receptor (L112A, Q257A, Y292A, and N295A receptors). We determined the mutation sites of the AT1 receptor according to ARB, which produced olmesartan derivatives with different interactions and functions toward the AT1 receptor, as previously reported by Zhang et al., since the additional 4-hydroxybenzyl groups of R781253 and R794847 were predicted to extend to a sub-pocket on the bottom of the AT1 receptor ligand-binding pocket consisting of Leu^112 and Gln^257. In addition, since the biased ligand TRV027 induced changes near the NPxxY motif in TM domain 7 that are related to receptor activation, Tyr^292 and Asn^295 in the AT1 receptor were mutated.
(§2) The synthetic rat AT1 receptor gene, which was cloned in the shuttle expression vector pMT-2, was used for expression and mutagenesis, as described previously. COS7 cells (No. CRL-1651, ATCC, Manassas, VA, USA) were cultured in 10% fetal bovine serum (FBS) and penicillin- and streptomycin-supplemented Dulbecco’s modified Eagle’s essential medium (PS-DMEM) in 5% CO2 at 37 °C. In the experiments, cells were grown without a cell-growth supplement. To express the AT1 receptor protein, 10 µg of purified plasmid DNA per 10^7 cells was used in the transfection. Wild-type and mutated AT1 receptors were transiently transfected into cells using Lipofectamine 2000 liposomal reagent (Roche Applied Science, Penzberg, Germany). Cells were plated and grown and were 70–90% confluent at the time of transfection. We incubated plasmid DNA (10 µg)–lipid (10 µL) complexes for 5 min at room temperature and added and incubated the complexes with cells for 24 h. We then analyzed the parameters in transfected cells. Cell viability was >95% according to trypan blue exclusion analysis in the control experiments. Transfected cells that had been cultured for 48–72 h were harvested. Cell membranes were prepared using the nitrogen Parr bomb disruption or freeze–thaw methods.
(§3) The Kd (nM) values of receptor binding were determined with ^125I-[Sar^1, Ile^8]AngII-binding experiments under equilibrium conditions. Binding kinetics were determined following the methods described in the literature. We carried out binding by using ^125I-[Sar^1, Ile^8] AngII (2200 Ci/mmol) and an increasing concentration (10^−11–10^−5 M) of each unlabeled compound. Nonspecific binding of ^125I-[Sar^1, Ile^8] Ang II was determined in the presence of a high concentration (10^−6 M) of unlabeled [Sar^1, Ile^8]. Next, the incubation mixture was separated by vacuum filtration through Whatman GF/C glass filters (Disposable Filter Funnels Grade GF/C, GE Healthcare), and presoaked with 0.1% polyethylenimine. The filter was washed with 3 mL of ice-cold stop buffer (25 mM Tris–HCl, pH 7.4, 1 mM MgCl2). The radioactivity trapped on the filters was quantified using an automatic γ-counter. The percentage (%) of specific binding of ^125I-[Sar^1, Ile^8]Ang II was calculated using the following formula: 100 × (% total binding of ^125I-[Sar^1, Ile^8]Ang II—nonspecific binding of ^125I-[Sar^1, Ile^8]Ang II)/(% total binding of ^125I-[Sar^1, Ile^8]Ang II).

AT1 N295A receptor = biological target: T2, AT1 N295A receptor (Rattus norvegicus, UniProt P25095, N295A); assay: Competition binding study, 125I-[Sar1,Ile8]Ang II, AT1 N295A receptor; settings: competition with 125I-[Sar1,Ile8]Ang II, n = 3, mean ± standard error, read-out: Binding affinity (Kd)
T2 construct: expressed in transfected cells; host or cells: COS7
T2 sequence (P25095 1-359 N295A): T1 sequence (P25095 1-359 Q257A) with A257Q, N295A
Excerpt: as §1, §2, §3

SMILES | Kd (AT1 Q257A receptor) | Kd (AT1 N295A receptor)
CCCc1nc(C(C)(C)O)c(C(=O)O)n1Cc1ccc(-c2ccccc2-c2nnn[nH]2)cc1 [Olmesartan, olmesartan] | 228 ± 38 nM | 334 ± 105 nM
CCCc1nc(C(C)(C)O)c(C(N)=O)n1Cc1ccc(-c2ccccc2-c2nnn[nH]2)cc1 [R239470] | 20 ± 2 nM | 69 ± 8 nM
CCCc1nc(C(C)(C)O)c(C(=O)O)n1Cc1ccc(-c2cc(Cc3ccc(O)cc3)ccc2-c2nnn[nH]2)cc1 [R781253] | 14 ± 6 nM | > 10000 nM
CCCc1nc(C(C)(C)O)c(C(N)=O)n1Cc1ccc(-c2cc(Cc3ccc(O)cc3)ccc2-c2nnn[nH]2)cc1 [R794847] | 2.7 ± 0.8 nM | > 10000 nM
